This note sets out measurements from patent US20230059009A1, “INHIBITORS OF LIN28 AND METHODS OF USE THEREOF” (The Regents of the University of California, priority 2019, published 2023).

The test system of test [1] is 22RV1. The test is described as follows: Cell viability, MTT assay, 22RV1. Conditions: Homo sapiens, 22RV1 (Prostate), 96 hr. It is filed as cell-based. The procedure:
(§1) To measure cell viability, cell titer glow (CTG, Promega CellTiter-Glo 2.0 Assay) and MTT assays (SigmaAldrich, Cell Proliferation Kit I) were performed. Briefly, cells were serum starved overnight prior to seeding in 96-well plates. Following 24 h incubation, cells were treated with increasing concentrations of JGJ compounds for 96 hr. At assay read-out, CellTiter-Glo reagent was added and luminescence was measured after 10-minutes incubation at room temperature. For the MTT assay, MTT labeling reagent was added and incubated for 4 h. Subsequently, medium was removed and 50 μL DMSO was added to solubilize the crystals, and absorbance was measured at 570 nm. Cell viability was calculated as (Sample-Background)/(Control-Background).

Test [2] concerns 22RV1. The test is described as follows: Cell viability, CellTiter-Glo (CTG), 22RV1. It is filed as cell-based. The settings on record: Homo sapiens, 22RV1 (Prostate), 96 hr. The procedure: as §1
The next test has as its system LNCaP. The test is described as follows: Cell viability, MTT assay, LNCaP. Type of test: cell-based. Conditions: Homo sapiens, LNCaP (Prostate). The procedure: as §1
A further test has as its system DU145. In words: Cell viability, MTT assay, DU145. Type of test: cell-based. Conditions: Homo sapiens, DU-145, DU145 (Prostate). The protocol:
as §1, with “(Sample-Background)/(Control-Background). Current standard of care drugs, Enzalutamide, Palbociclib and Cetuximab were used as comparative controls.” for “(Sample-Background)/(Control-Background).”

The next test concerns H1975. The test is described as follows: Cell viability, MTT assay, H1975. It is filed as cell-based. Conditions: Homo sapiens, NCI-H1975, H1975 (Lung). The procedure: as §1
For another test, the system named is H1568. In words: Cell viability, MTT assay, H1568. Type of test: cell-based. The settings on record: NCI-H1568, H1568 (Lung). The protocol:
as §1, with “(Sample-Background)/(Control-Background). Current standard of care drugs, Enzalutamide, Palbociclib and Cetuximab were used as comparative controls.” for “(Sample-Background)/(Control-Background).”

A further test has as its system A549. The test is described as follows: Cell viability, MTT assay, A549. The settings on record: Homo sapiens, A549 (Lung). Type of test: cell-based. The protocol: as §1
A further test concerns H23. The test is described as follows: Cell viability, MTT assay, H23. It is filed as cell-based. Conditions: Homo sapiens, NCI-H23, H23 (Lung). The protocol:
as §1, with “(Sample-Background)/(Control-Background). Current standard of care drugs, Enzalutamide, Palbociclib and Cetuximab were used as comparative controls.” for “(Sample-Background)/(Control-Background).”

For the next test, the system named is H460. The test is described as follows: Cell viability, MTT assay, H460. Conditions: Homo sapiens, NCI-H460, H460 (Lung). It is filed as cell-based. The procedure: as §1, with “(Sample-Background)/(Control-Background). Current standard of care drugs, Enzalutamide, Palbociclib and Cetuximab were used as comparative controls.” for “(Sample-Background)/(Control-Background).”

Another test has as its system BT-549. In words: Cell viability, MTT assay, BT-549. Type of test: cell-based. Conditions: Homo sapiens, BT-549 (Breast). The protocol: as §1, with “(Sample-Background)/(Control-Background). Current standard of care drugs, Enzalutamide, Palbociclib and Cetuximab were used as comparative controls.” for “(Sample-Background)/(Control-Background).”
In test [3] the test system is MDA-MB231. In words: Cell viability, MTT assay, MDA-MB231. It is filed as cell-based. Conditions: Homo sapiens, MDA-MB-231, MDA-MB231 (Breast). The procedure: as §1, with “(Sample-Background)/(Control-Background). Current standard of care drugs, Enzalutamide, Palbociclib and Cetuximab were used as comparative controls.” for “(Sample-Background)/(Control-Background).”

In test [4] the test system is MDA-MB231. In words: Cell viability, CTG, MDA-MB231. It is filed as cell-based. The settings on record: Homo sapiens, MDA-MB-231, MDA-MB231 (Breast). The protocol:
as §1, with “(Sample-Background)/(Control-Background). Current standard of care drugs, Enzalutamide, Palbociclib and Cetuximab were used as comparative controls.” for “(Sample-Background)/(Control-Background).”

The test system of another test is MCF7. In words: Cell viability, MTT assay, MCF7. Type of test: cell-based. The settings on record: Homo sapiens, MCF7 (Breast). The protocol: as §1, with “(Sample-Background)/(Control-Background). Current standard of care drugs, Enzalutamide, Palbociclib and Cetuximab were used as comparative controls.” for “(Sample-Background)/(Control-Background).”
The test system of the next test is HCT-116. The test is described as follows: Cell viability, CTG, HCT-116. The settings on record: Homo sapiens, HCT-116 (Colon). Type of test: cell-based. The protocol:
as §1, with “(Sample-Background)/(Control-Background). Current standard of care drugs, Enzalutamide, Palbociclib and Cetuximab were used as comparative controls.” for “(Sample-Background)/(Control-Background).”

Test [5] deals with SW620. In words: Cell viability, CTG, SW620. Type of test: cell-based. Conditions: Homo sapiens, SW-620, SW620 (Colon). The protocol: as §1, with “(Sample-Background)/(Control-Background). Current standard of care drugs, Enzalutamide, Palbociclib and Cetuximab were used as comparative controls.” for “(Sample-Background)/(Control-Background).”
The subject of the next test is SW948. In words: Cell viability, CTG, SW948. It is filed as cell-based. The settings on record: Homo sapiens, SW948 (Colon). The procedure: as §1, with “(Sample-Background)/(Control-Background). Current standard of care drugs, Enzalutamide, Palbociclib and Cetuximab were used as comparative controls.” for “(Sample-Background)/(Control-Background).”
Test [6] deals with T1, LIN28B/pre-let-7a-2 binding (Homo sapiens, UniProt Q6ZN17).
T1 construct: made in house; host or cells: stably transduced HEK cells; used as diluted protein lysate, not purified
T1 sequence (Q6ZN17 1-250): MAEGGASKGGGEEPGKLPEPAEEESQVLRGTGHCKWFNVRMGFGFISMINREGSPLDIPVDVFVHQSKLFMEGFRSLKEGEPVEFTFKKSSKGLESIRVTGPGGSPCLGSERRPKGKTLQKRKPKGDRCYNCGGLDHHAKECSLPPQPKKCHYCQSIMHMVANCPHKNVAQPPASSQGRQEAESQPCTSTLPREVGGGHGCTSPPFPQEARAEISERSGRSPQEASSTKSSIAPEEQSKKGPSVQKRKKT
The test is described as follows: FRET assay, EGFP-tagged LIN28B and BHQ-1 labelled pre-let-7a-2. The settings on record: doses 1.25 uM-20 uM; compared with LN1632. The procedure: As described herein, compounds of formula (I) and (II) show Lin28/let-7 inhibitory activity in FRET assays in vitro and in LSCs and LSC-like Kasumi-1 cells. FRET assay was performed as previously described (51).
In order to improve binding and inhibitory capacity of a compound to LIN28b, we predicted the binding mode of LN1632 to LIN28B. […] With this model in hand, we synthesized novel compounds with improved binding capacity to Lin28b (JGJ002-JGJ008, FIG. 8). Compounds were screened using a previously described FRET-assay with an EGFP-tagged LIN28B as donor and a BHQ-1 quencher labelled pre-let-7a-2 (pre-let-7a-2-BHQ1) as acceptor (51). Briefly, recombinant LIN28B-EGFP was harvested from stably transduced HEK cells and diluted with binding buffer (300 mM NaCl, 25 mM HEPES pH 7.2, 10 μM ZnCl2, 1% Odyssey Blocking Buffer, 0.05% Tween 20, 0.5 mM TCEP) in order to adjust ideal FRET-quenching signal intensity. Protein lysate and compounds (JGJ001-JGJ008) were pre-incubated in doses ranging from 1.25 uM-20 uM for 20 min in 100 uL diluted protein lysate. Subsequently pre-let-7a-2-BHQ1 was added to the mixture (at 6.25 nM) and EGFP-LIN28B donor emission was measured using a Tecan Spark Plate Reader ([…], excitation at 488 nm, emission read-out at […], 30 flashes/s). […] Increased endogenous let-7 miRNA levels can target a panoply of LCS and cancer stem cell hallmark genes thus inhibiting tumor growth.
(§2) To test the structure-activity relationship, 39 LN1632-related analogs (JGJ001-39) were synthesized and their potency and specificity to inhibit LIN28B-RNA binding activity and upregulate mature let-7 miRNA levels was measured. […] The dual luciferase reporter assay was performed as previously described (89).

A further test deals with mature let-7 miRNAs. In words: Dual luciferase reporter assay of mature let-7 miRNAs in HepG2 cells. It is filed as cell-based. Conditions: 3-10 μM, compared with LN1632. The protocol: as §2
A further test has as its system 22Rv1 cells. In words: 22Rv1 cell counting. Type of test: cell-based. Conditions: 2 μM JGJ023 vs 42 μM Enzalutamide, day +5, +7, +9. The procedure:
(§3) To test whether LN1632 and novel analogs thereof affect cancer cell growth, cell viability and cell counting assays in TNBC (FIG. 14B-D), castration resistant prostate cancer cells (CRPC, FIG. 15A-C) and colorectal cancer cells (CRC, FIG. 15A-C) were performed.

Test [7] has as its system SW620. In words: Cell viability, MTT assay, SW620. It is filed as cell-based. The settings on record: Homo sapiens, SW-620, SW620 (Colon). The procedure:
as §1, with “(Sample-Background)/(Control-Background). Current standard of care drugs, Enzalutamide, Palbociclib and Cetuximab were used as comparative controls.” for “(Sample-Background)/(Control-Background).”

For test [8], the system named is SW480. The test is described as follows: Cell viability, MTT assay, SW480. Type of test: cell-based. Conditions: Homo sapiens, SW480 (Colon). The procedure: as §1, with “(Sample-Background)/(Control-Background). Current standard of care drugs, Enzalutamide, Palbociclib and Cetuximab were used as comparative controls.” for “(Sample-Background)/(Control-Background).”

For test [9], the system named is SW480. In words: Cell viability, CTG, SW480. It is filed as cell-based. The settings on record: Homo sapiens, SW480 (Colon). The protocol: as §1
The test system of a further test is MYC-driven cancers. In words: Cell viability and cell counting assays in cancer cells. Type of test: cell-based. Conditions: TNBC, CRPC, lung and colorectal adenocarcinoma cells. The protocol: as §3
as §1, with “(Sample-Background)/(Control-Background). Current standard of care drugs, Enzalutamide, Palbociclib and Cetuximab were used as comparative controls.” for “(Sample-Background)/(Control-Background).”

For the molecule `CC(=O)Nc1cccc(-c2ccc3ncc(-c4ccccc4)n3n2)c1` [JGJ023, N-(3-(3-Phenylimidazo[1,2-b]pyridazin-6-yl)phenyl)acetamide], the IC50 in the test on 22RV1 [1] was 2 µM; with 22RV1 [2], 8 µM; in the test with LNCaP, 6 µM; in the test on DU145 it was 3 µM; in the test on H1975, 8 µM; in the test with H1568, 12 µM. Besides, the IC50 in the test with A549 came out at 20 µM; in the test on H23, 94 µM; in the test with H460, 124 µM; in the test on BT-549, 7 µM; in the test with MDA-MB231 [3] it was 61 µM; with MDA-MB231 [4], 17 µM. Also, the IC50 amounted to 38 µM in the test with MCF7, 215 µM in the test with HCT-116, 27 µM with SW620 [5] and 51 µM in the test on SW948. In addition, in test [6], the “Inhibition of LIN28B binding to pre-let-7a (FRET signal)” value is given as “inhibit LIN28's RNA-binding capacity significantly more than compound LN1632”. For the same molecule, the “Upregulation of mature let-7 miRNAs” value with mature let-7 miRNAs is “upregulated mature let-7 miRNAs at significantly lower doses than LN1632”. For the same molecule, the “Apoptosis and cell numbers” value with 22Rv1 cells is “induces apoptosis and reduces cell numbers of mCRPC compared to Enzalutamide”.

On to `CC(=O)Nc1cccc(-c2ccc3[nH]cc(-c4ccccc4)c3n2)c1` [JGJ034, N-(3-(3-Phenyl-1H-pyrrolo[3,2-b]pyridin-5-yl)phenyl)acetamide], for which the IC50 was 1 µM in the test on 22RV1 [1]; 2 µM with 22RV1 [2]; 3 µM with LNCaP; 3 µM in the test on MDA-MB231 [4]; 43 µM in the test with HCT-116; 2 µM with SW620 [7]. In addition, the IC50 with SW620 [5] was 3 µM; with SW480 [8], 33 µM; in the test on SW480 [9], 41 µM; in the test on SW948, 85 µM. The “Inhibition of LIN28B binding to pre-let-7a (FRET signal)” value in test [6] was “inhibit LIN28's RNA-binding capacity significantly more than compound LN1632”. Also, in the test with mature let-7 miRNAs, the “Upregulation of mature let-7 miRNAs” value was “upregulated mature let-7 miRNAs at significantly lower doses than LN1632”. For the same molecule, the “Proliferation and apoptosis of cancer cells” value with MYC-driven cancers was “reduced proliferation and induced apoptosis preferentially in MYC-driven cancers”.
